# Experiments:
# ADH water channels = assay: Proton permeability (PH+) of F-dextran loaded endocytic vesicles containing ADH water channels, stopped-flow fluorescence after imposed pH gradient; format: biochemical, Bufo marinus
# Description: Endocytic vesicles from the bladder of Dominican toads were ADH stimulated and loaded with fluoroescein bound to dextran (F-dextran) following the procedures of Harris et.al., "Apical Membrane Vesicles of ADH-Stimulated Toad Bladder Are Highly Water Permeable,"Am. J. Physiol. In Press, (1989); Harris, H. W., et.al., "Fluorescent Markers to Study Membrane Retrieval in Antidiuretic Hormone-Treated Toad Urinary Bladder," Am. J. Physiol., 251:C274-C284 (1986). Briefly, the procedures were as follows.
# Dominican toads (Bufo marinus), obtained from National Reagents, Bridgeport, CT, were employed. Urinary bladders of Bufo marinus were prepared and mounted on cannulas as small sacs. After a 20 minute interval of ADH stimulation (50 mU/ml), the apical surfaces of bladders were exposed to solutions containing 50 mg/ml of F-dextran (Av. Mol. Wt. 70,000 Daltons) and […], 30 Mm KCl, and […], pH 8.0, for an interval of 5 minutes followed by termination of ADH stimulation and incubation for an additional 10 minutes. The solution containing the F-dextran was then removed, the bladders rinsed to remove all extracellular F-dextran. The intermediate pellet fraction obtained from centrifugation of the cell was used. F-dextran loaded vesicles were washed repeatedly to remove F-dextran and partially purified by differential centrifugation. In the absence of ADH, no detectable fluorescence was present in this vesicle fraction despite apical membrane exposure to F-dextran.
# Standard cuvette fluorescence measurements were performed using an SLM-Aminco 500C spectrofluorimeter (excitation wavelength 499 nm). Stopped-flow measurements were performed in a High Tech stopped-flow device (50 msec dead time) connected to a Photon Technologies Alphascan Fluorimeter. One syringe contained a concentrated vesicle suspension and antifluoroscein antibody while the other contained buffer with sufficient HCl to change the final extravesicular pH as indicated. Data from 3-5 determination performed on a single day were averages. Results were fitted to single exponentials and .tau. was converted to permeability using the following equation: […]
# where JH + is the flux rate of protons in mole/sec, PH + is the permeability coefficient of protons in cm/sec, ΔC is the concentration gradient for protons across the vesicle membrane at the start of the experiment in mole/cm^3, and A is the surface area of a single F-dextran containing vesicle (7.1×10^-10 cm^2). See Harris, H. W., et.al., "Isolation and Characterization of Specialized Regions of Toad Urinary Bladder Apical Plasma Membrane Involved in the Water Permeability Response to Antidiuretic Hormone," J. Memb. Biol., 96:175-186 (1987). Jh + was calculated by multiplying 1/.tau. by the amount of buffer (in moles) in an individual vesicle (single vesicle volume was 1.41×10^-14 cm^3). .tau. is the mathematical term representing the time for the process to be 2/3 completed. Estimates of vesicle volume and surface area were calculated from dimensions of vesicles loaded with horseradish peroxides (HRP) instead of F-dextran.
# The effect of pCMBS on the rate of pH change in F-dextran loaded vesicles was determined. The materials and procedures of Example 1 were employed, except as noted. […] The results are plotted in FIG. 3. As illustrated, preincubation of vesicles with pCMBS inhibited 54% of oH + in F-dextran loaded vesicles. Control pH + was 3.9±0.5×10^-3 cm/sec (n-5; p<0.005 compared to control; unpaired t test). […]
# toad bladder [1] = settings: cited from earlier work
# toad bladder [2] = settings: NEM pretreatment; cited from earlier work
# [3] = tested on: human erythroycte membrane; settings: NEM pretreatment; cited from earlier work
smiles,measurement,setting,value
O=C(CCc1ccc(O)cc1)c1c(O)cc(O)cc1O [Phloretin],effect on apical membrane vesicle JH +,ADH water channels; phloretin 30 min prior to assay and present during stopped flow,without effect
same,PH + (proton permeability coefficient) of treated vesicles,"ADH water channels; vesicles exposed to phloretin 30 min prior to assay, stopped flow in continued presence, paired studies",2.6±0.4 ×10^-3 cm/sec
same,effect on ADH-stimulated urea flux in toad bladder,toad bladder [1],inhibits
"O=S(=O)(O)c1cc[c]([Hg][Cl])cc1 [pCMBS, parachloromercuribenzene sulfonate]",inhibition of oH + (proton permeability) in F-dextran loaded vesicles,"ADH water channels; 1 mM pCMBS, one hour preincubation at 4° C., vesicles with 17.6 mM HEPES pH 8.0, extravesicular pH lowered to 6.0",54%
"CCN1C(=O)C=CC1=O [NEM, n-ethylmaleimide]",effect on pH + compared to control (significance),"ADH water channels; NEM 2 mM, 1 h pretreatment on ice",NS compared to control
same,pH + (proton permeability coefficient) after pretreatment,"ADH water channels; NEM 2 mM, pretreated 1 h in HEPES buffer on ice, paired control 5.6±0.2×10^-3",6.2±0.9×10^-3 cm/sec
same,inhibitory effect on water flux across the toad bladder,toad bladder [2],no inhibitory effect
same,inhibitory effect on water flux across human erythrocyte membrane,[3],no inhibitory effect

# From US5106610A, “Method for determining the diuretic potency of candidate drugs as inhibitors of the antidiuretic hormone-elicited water channel” (Childrens Medical Center Corporation, priority 1989, dated 1992)
